Measured values published in PubChem BioAssay (NCI).
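Abbreviation: GI50, concentration required for 50% inhibition of growth. TGI: concentration producing complete growth inhibition.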

Tests used:
Assay in all cases: growth of human tumour cells (NCI), 384-well format
MDA-MB-435 melanoma = tested on: MDA-MB-435 melanoma
BT-549 breast = tested on: BT-549 breast
SN12C renal = tested on: SN12C renal
ACHN renal = tested on: ACHN renal
UO-31 renal = tested on: UO-31 renal
A549 NSCLC = tested on: A549 NSCLC
RPMI-8226 leukemia = tested on: RPMI-8226 leukemia
MCF7 breast = tested on: MCF7 breast
A498 renal = tested on: A498 renal
DU-145 prostate = tested on: DU-145 prostate
SK-MEL-2 melanoma = tested on: SK-MEL-2 melanoma
MDA-MB-231 breast = tested on: MDA-MB-231 breast
SNB-19 CNS = tested on: SNB-19 CNS
SR leukemia = tested on: SR leukemia
UACC-62 melanoma = tested on: UACC-62 melanoma
TK-10 renal = tested on: TK-10 renal
786-0 renal = tested on: 786-0 renal
NCI-H23 lung = tested on: NCI-H23 lung
SF-539 CNS = tested on: SF-539 CNS
HOP-92 NSCLC = tested on: HOP-92 NSCLC
COLO 205 colon = tested on: COLO 205 colon
MALME-3M melanoma = tested on: MALME-3M melanoma
OVCAR-3 ovarian = tested on: OVCAR-3 ovarian
RXF 393 renal = tested on: RXF 393 renal
T-47D breast = tested on: T-47D breast
OVCAR-4 ovarian = tested on: OVCAR-4 ovarian
K-562 leukemia = tested on: K-562 leukemia
HCC-2998 colon = tested on: HCC-2998 colon
CCRF-CEM leukemia = tested on: CCRF-CEM leukemia
CAKI-1 renal = tested on: CAKI-1 renal
HCT-116 colon = tested on: HCT-116 colon
NCI-H522 lung = tested on: NCI-H522 lung
HT29 colon = tested on: HT29 colon
NCI-H460 NSCLC = tested on: NCI-H460 NSCLC
NCI/ADR-RES ovarian = tested on: NCI/ADR-RES ovarian
M14 melanoma = tested on: M14 melanoma
HOP-62 NSCLC = tested on: HOP-62 NSCLC
OVCAR-5 ovarian = tested on: OVCAR-5 ovarian
PC-3 prostate = tested on: PC-3 prostate
MDA-MB-468 breast = tested on: MDA-MB-468 breast
MOLT-4 leukemia = tested on: MOLT-4 leukemia
NCI-H226 lung = tested on: NCI-H226 lung
NCI-H322M lung = tested on: NCI-H322M lung
SK-MEL-28 melanoma = tested on: SK-MEL-28 melanoma
SK-MEL-5 melanoma = tested on: SK-MEL-5 melanoma
SF-295 CNS = tested on: SF-295 CNS
LOX IMVI melanoma = tested on: LOX IMVI melanoma
IGROV1 ovarian = tested on: IGROV1 ovarian
U251 glioblastoma = tested on: U251 glioblastoma
KM12 colon = tested on: KM12 colon
SK-OV-3 ovarian = tested on: SK-OV-3 ovarian
OVCAR-8 ovarian = tested on: OVCAR-8 ovarian
HL-60(TB) leukemia = tested on: HL-60(TB) leukemia
SW-620 colon = tested on: SW-620 colon
SF-268 CNS = tested on: SF-268 CNS
HCT-15 colon = tested on: HCT-15 colon
UACC-257 melanoma = tested on: UACC-257 melanoma

In the case of `COCCNCc1ccc(-c2cc3nccc(Oc4ccc(NC(=S)NC(=O)Cc5ccc(F)cc5)cc4F)c3s2)nc1`, the GI50 (MDA-MB-435 melanoma) is reported as 1860 nM, the TGI (MDA-MB-435 melanoma) is reported as 3270 nM and the GI50 (BT-549 breast) is reported as 1600 nM. For the same compound, the TGI (BT-549 breast) was 2950 nM, the GI50 (SN12C renal) was 1140 nM and the TGI (SN12C renal) was 2350 nM. For the same compound, the GI50 (ACHN renal) was 1720 nM, the TGI (ACHN renal) was 3110 nM and the GI50 (UO-31 renal) was 1600 nM. For the same compound, the TGI (UO-31 renal) was 2950 nM, the GI50 (A549 NSCLC) was 1680 nM and the TGI (A549 NSCLC) was 3070 nM. The GI50 (RPMI-8226 leukemia) was 614 nM, the TGI (RPMI-8226 leukemia) was 1820 nM and the GI50 (MCF7 breast) was 1480 nM. For the same compound, the TGI (MCF7 breast) was 2810 nM, the GI50 (A498 renal) was 1560 nM and the TGI (A498 renal) was 2900 nM. For the same compound, the GI50 (DU-145 prostate) was 1860 nM, the TGI (DU-145 prostate) was 3290 nM and the GI50 (SK-MEL-2 melanoma) was 1960 nM. For the same compound, the TGI (SK-MEL-2 melanoma) was 3380 nM, the GI50 (MDA-MB-231 breast) was 1440 nM and the TGI (MDA-MB-231 breast) was 2760 nM. The GI50 (SNB-19 CNS) was 1780 nM, the TGI (SNB-19 CNS) was 3190 nM and the GI50 (SR leukemia) was 187 nM. For the same compound, the TGI (SR leukemia) was 330 nM, the GI50 (UACC-62 melanoma) was 1520 nM and the TGI (UACC-62 melanoma) was 2860 nM. It also gave a GI50 (TK-10 renal) of 1780 nM, a TGI (TK-10 renal) of 3170 nM and a GI50 ([…]-0 renal) of 1480 nM. It also gave a TGI (786-0 renal) of 2820 nM, a GI50 (NCI-H23 lung) of 486 nM and a TGI (NCI-H23 lung) of 2200 nM. It also gave a GI50 (SF-539 CNS) of 969 nM, a TGI (SF-539 CNS) of 2150 nM and a GI50 (HOP-92 NSCLC) of 1260 nM. The TGI (HOP-92 NSCLC) was 2520 nM, the GI50 (COLO 205 colon) was 1610 nM and the TGI (COLO 205 colon) was 2980 nM. It also gave a GI50 (MALME-3M melanoma) of 1540 nM, a TGI (MALME-3M melanoma) of 2890 nM and a GI50 (OVCAR-3 ovarian) of 1890 nM. It also gave a TGI (OVCAR-3 ovarian) of 3310 nM, a GI50 (RXF 393 renal) of 1590 nM and a TGI (RXF 393 renal) of 2940 nM. It also gave a GI50 (T-47D breast) of 1480 nM, a TGI (T-47D breast) of 2810 nM and a GI50 (OVCAR-4 ovarian) of 1090 nM. The TGI (OVCAR-4 ovarian) was 2300 nM, the GI50 (K-562 leukemia) was 177 nM and the TGI (K-562 leukemia) was 343 nM. It also gave a GI50 (HCC-2998 colon) of 1850 nM, a TGI (HCC-2998 colon) of 3260 nM and a GI50 (CCRF-CEM leukemia) of 868 nM. It also gave a TGI (CCRF-CEM leukemia) of 2070 nM, a GI50 (CAKI-1 renal) of 1520 nM and a TGI (CAKI-1 renal) of 2860 nM. For the same compound, the GI50 (HCT-116 colon) was 1280 nM, the TGI (HCT-116 colon) was 2560 nM and the GI50 (NCI-H522 lung) was 1670 nM. It also gave a TGI (NCI-H522 lung) of 3030 nM, a GI50 (HT29 colon) of 1160 nM and a TGI (HT29 colon) of 2410 nM. It also gave a GI50 (NCI-H460 NSCLC) of 1420 nM, a TGI (NCI-H460 NSCLC) of 2750 nM and a GI50 (NCI/ADR-RES ovarian) of 1580 nM. The TGI (NCI/ADR-RES ovarian) was 2930 nM, the GI50 (M14 melanoma) was 1580 nM and the TGI (M14 melanoma) was 2940 nM. For the same compound, the GI50 (HOP-62 NSCLC) was 1930 nM, the TGI (HOP-62 NSCLC) was 3350 nM and the GI50 (OVCAR-5 ovarian) was 1940 nM. The TGI (OVCAR-5 ovarian) was 3380 nM, the GI50 (PC-3 prostate) was 1810 nM and the TGI (PC-3 prostate) was 3210 nM. For the same compound, the GI50 (MDA-MB-468 breast) was 1850 nM, the TGI (MDA-MB-468 breast) was 3250 nM and the GI50 (MOLT-4 leukemia) was 582 nM. The TGI (MOLT-4 leukemia) was 1780 nM, the GI50 (NCI-H226 lung) was 1950 nM and the TGI (NCI-H226 lung) was 3620 nM. It also gave a GI50 (NCI-H322M lung) of 1700 nM, a TGI (NCI-H322M lung) of 3090 nM and a GI50 (SK-MEL-28 melanoma) of 1500 nM. It also gave a TGI (SK-MEL-28 melanoma) of 2830 nM, a GI50 (SK-MEL-5 melanoma) of 1260 nM and a TGI (SK-MEL-5 melanoma) of 2520 nM. The GI50 (SF-295 CNS) was 875 nM, the TGI (SF-295 CNS) was 2110 nM and the GI50 (LOX IMVI melanoma) was 2020 nM. For the same compound, the TGI (LOX IMVI melanoma) was 3460 nM, the GI50 (IGROV1 ovarian) was 1640 nM and the TGI (IGROV1 ovarian) was 3540 nM. For the same compound, the GI50 (U251 glioblastoma) was 1300 nM, the TGI (U251 glioblastoma) was 2580 nM and the GI50 (KM12 colon) was 385 nM. The TGI (KM12 colon) was 1440 nM, the GI50 (SK-OV-3 ovarian) was 1550 nM and the TGI (SK-OV-3 ovarian) was 2890 nM. The GI50 (OVCAR-8 ovarian) was 1420 nM, the TGI (OVCAR-8 ovarian) was 2740 nM and the GI50 (HL-60(TB) leukemia) was 621 nM. It also gave a TGI (HL-60(TB) leukemia) of 1750 nM, a GI50 (SW-620 colon) of 1550 nM and a TGI (SW-620 colon) of 2920 nM. It also gave a GI50 (SF-268 CNS) of 1570 nM, a TGI (SF-268 CNS) of 2920 nM and a GI50 (HCT-15 colon) of 1710 nM. For the same compound, the TGI (HCT-15 colon) was 3110 nM, the GI50 (UACC-257 melanoma) was 1090 nM and the TGI (UACC-257 melanoma) was 2290 nM.
